Measurements as given in US12628822B2, “Plant pathogen defence elicitors” (UNIVERSITÉ LIBRE DE BRUXELLES, priority 2020, dated 2026).

Key:
callose deposition = assay: Callose staining in Arabidopsis leaves; type: in vivo, Arabidopsis thaliana; settings: 6 and 24 h after treatment; 100 μM AA9_COS, 100 μM cellobiose or 1 μM FLG22; 5-week old plants
Experimental: Callose deposits quantification was performed essentially as described by Zarattini et al. (The bile acid deoxycholate elicits defences in Arabidopsis and reduces bacterial infection. Mol Plant Pathol. 2017, vol. 18(4), 540-554). […] Leaves were examined by stereofluorescence microscopy with an Azio Zoom V.16 (Carl Zeiss Inc., Oberkochen, Germany) and callose spots were quantified using ImageJ software.
Among them, several genes were associated to callose deposition in the cell wall (FIG. 4).

MPK3/6 = assay: Western-blot analysis of MPK3/6 phosphorylation; type: in vivo, Arabidopsis thaliana; settings: 100 μM, 5 mins after treatment, Col-0 plants
Experimental: FIG. 10d illustrates early immunohistochemical quantification or Western-blot analysis of the MPK3/6 phosphorylation after the indicated treatments. […] Leaves were collected 5 mins after treatment, immediately frozen in liquid nitrogen, and stored at −80° C. for analysis. […] The separated proteins were transferred on a 0.45-μm Immobilon-PPVDF membrane (Millipore). Blocking was performed in TBST containing 5% non-fat dry milk, and blots were incubated overnight at 4° C. with specific antibodies (anti-AtMPK6 and anti-Phospho-p44/42 MPK (Thr202/Tyr204)), washed in TBST, and incubated with the secondary antibody anti-Rabbit IgG conjugated with horseradish peroxidase (HRP) enzyme diluted to 1/10,000. The chemiluminescent detection of HRP was performed withClarity™Western ECL Substrate and ChemiDoc™MP Imaging System.

## OC[C@H]1O[C@@H](O[C@H]2[C@H](O)[C@@H](O)[C@H](O)O[C@@H]2CO)[C@H](O)[C@@H](O)[C@@H]1O [Cellobiose, β-D-glucopyranosyl(1→4)D-glucopyranose]
Callose deposition
  callose accumulation: no visible callose spots
MPK3/6
  Early MPK3/6 phosphorylation: no phosphorylation was observed
